For experiment [1], the target named is Oxidized purine nucleoside triphosphate hydrolase (Homo sapiens, UniProt P36639). Put plainly: Inhibition of human recombinant His-tagged MTH1 expressed in Escherichia coli BL21 using dGTP as substrate after 15 mins by malachite green reagent-based assay.
Experiment [2] deals with HeLa. The experiment is described as follows: Cytotoxicity against human HeLa cells after 72 hrs by WST-8 assay. It is filed as functional, cell-based.

Regarding `CSc1nc2c(N)ncnc2[nH]1`, the IC50 in experiment [1] was 24 µM. For `Cc1nc(N)nc2ccccc12`, the IC50 in experiment [1] turned out to be 5.6 µM.

In experiment [2], `Nc1nc(NCCc2ccccc2)c2nc[nH]c2n1` displayed an EC50 of 35 µM. In the case of `Nc1nc(SCCc2ccccc2)c2nc[nH]c2n1`, the IC50 in experiment [1] amounted to 0.17 µM.
